The source of these data is patent US20230414628A1, “METHODS FOR TREATING DISEASES MEDIATED BY GLUTATHIONE PEROXIDASE 4” (priority 2022, published 2023).

The first assay concerns RAG01 (derived from fibroblasts of a patient diagnosed with SSMD) fibroblasts. Put plainly: CellTiter-Glo concentration response in RAG01 fibroblasts. In kind it is cell-based, human. The conditions noted are these: Homo sapiens, Fibroblast, 72 h. As to the method:
Compounds described herein were tested in three cell lines, RAG01 (derived from fibroblasts of a patient diagnosed with SSMD) fibroblasts, RAG02 (derived from fibroblasts of the patient's parent), and GM09503 (from supplier Corriell) (derived from a healthy donor) to each generate 10-point concentration response curves (CRC). The three cell lines were each thawed seven (7) days prior to seeding. The RAG01 cells were thawed in a medium supplemented with a-tocopherol. Cells were passaged four (4) days prior to the seeding. The α-tocopherol was removed from the RAG01 cells. Cells were then seeded at 900 cells per well in 384-well plates. Two replicates were prepared for two independent (replicate) experiments. All plates were then incubated with compounds described herein for 72 hours, prior to CellTiter-Glo assay. […] The assay was run using the CellTiter-Glo (Promega) following manufacturer's guidelines and luminescent spectrophotometric reading on PHERAstar FSX (BMG Labtech). A 0.1% dimethylsulfoxide (DMSO) was used as a blank (vehicle control); and a 1 μM Ferrostatin-1 was used as a control (CTRL).
(§1) The raw data was analyzed using Activity Base® software. The compounds were evaluated by efficacy (percentage effect) normalized to the vehicle control. The percentage effect (PE) was determined from the signal increase in comparison to the vehicle control according to the formula below: […]
The percentage effect values were then plotted against log concentration of the drug to generate a concentration response curve. The curves were fitted using a four-parameter fit, and curve tops and hillslopes were fixed where required and justified.
On the technique in general: Cellular ATP, detected with luciferase, serves as a proxy for viable cell number.
By EC50 is commonly meant the concentration that produces a half-maximal response. Regarding `COC(=O)c1cc2c(C(F)(F)F)cc(-c3ccccc3)cc2n1O` [compound 100, NHI-2], the concentration for a half-maximal effect (EC50) stood at 1310 nM.

Staying with this assay, now noted: Homo sapiens, Fibroblast; RAG01 cell line; 72 hours incubation; CellTiter-Glo; percentage effect normalized to vehicle control; 10-point CRC from 10 μM; read-out: EC50.
With `Cc1ccccc1C(=O)c1ccc(Nc2ccc(Br)cc2N)cc1Cl` [compound 83, EO-1428], the EC50 amounted to 1040 nM.
On to `NC(=O)c1nc(Nc2ccccc2)sc1NC(=O)C1CCCCC1` [compound 85, UNC-3230], for which the EC50 turned out to be 1240 nM.
On the same count and under the same terms, the same measure for `CC1(C)CNc2cc(NC(=O)c3cccnc3NCc3ccncc3)ccc21` [compound 86, Motesanib]: 1460 nM.
`Cc1ccc(F)c(NC(=O)Nc2ccc(-c3cccc4[nH]nc(N)c34)cc2)c1` [compound 87, Linifanib]: the EC50 came to 1650 nM.
Consider `Cc1c(NC(=O)OC[C@@H]2COCCN2)cn2ncnc(Nc3ccc4c(cnn4Cc4cccc(F)c4)c3)c12` [compound 88, BMS-599626], for which the EC50 amounted to 2300 nM.
Take `CC(C)(C)C(=O)/C(=N/c1ccc(Cl)cc1)NNc1ccc(Cl)cc1` [compound 90, TY 52156]: the EC50 was determined as 117 nM.
On the same count and under the same terms, the same measure for `O=C1c2cccnc2C(=O)C(NCCN2CCOCC2)C1Cl` (stereo not shown) [compound 91, NSC 663284]: 268 nM; for `COc1ccc2nc3cc(Cl)ccc3c(Nc3cc(CN4CCCC4)c(O)c(CN4CCCC4)c3)c2n1` [compound 92, pyronaridine]: 416 nM; for `COC(=O)c1sccc1S(=O)(=O)Nc1ccc(Nc2ccccc2)cc1OC` [compound 93, GSK-0660]: 438 nM.
Still for that read-out and setting: the figure for `OC(CNc1ccccc1)Cn1c2ccc(Br)cc2c2cc(Br)ccc21` (stereo not shown) [compound 94, P7C3] is 652 nM; for `Cc1cccc(Nc2nc(-c3ccncc3)cs2)c1` [compound 95, STF-62247] it is 739 nM.
The same measure, in the same setting: the same measure for `COc1ccc(-c2nc(-c3ccc(-c4cccc(Cl)c4)o3)[nH]c2-c2ccc(OC)cc2)cc1` [compound 96, neurodazine]: 956 nM; for `c1ccc2c(Oc3nc(Nc4ccc(N5CCOCC5)cc4)c4ncn(C5CCCCC5)c4n3)cccc2c1` [compound 97, Purmorphamine]: 1100 nM; for `C[C@@H]1CC(=O)c2c(ccc3c2C(=O)c2cccc(O)c2C3=O)C1` [compound 98, ochromycinone]: 1150 nM.
Take `O=C1C=Cc2cc(Br)ccc2C1=O` [compound 99, bonaphthone]: the EC50 came to 1260 nM.
For the molecule `Cc1[nH]c(/C=C2\C(=O)Nc3cc(-c4ccccc4)ccc32)c(C)c1CCC(=O)O` [compound 101, su-16f], the EC50 worked out at 1380 nM.
The same measure, in the same setting: the same measure for `N#Cc1ccc(-c2csc(NN=C3CCCC3)n2)cc1` [compound 103, remodelin]: 1560 nM; for `COC(=O)/C=C/c1cccc(N(Cc2ccc(-c3ccc(N(C)C)cc3)cc2)C(=O)C2CCCCC2)c1` [compound 104, Fexaramine]: 1720 nM.
Regarding `CC(C)(C)c1cc(C(C)(C)C)c(NC(=O)c2c[nH]c3ccccc3c2=O)cc1O` [compound 105, ivacaftor], the concentration giving a half-maximal response (EC50) is 1840 nM.
As for `Cc1nn(C)c2nc(NNC(=O)Nc3cc(Cl)nc(Cl)c3)cc(C(C)C)c12` [compound 106, JTE-013], the EC50 was found to be 2470 nM.
As to `COc1cc(OC)cc(C(=O)NNC(=O)Nc2cccc3ccccc23)c1` [compound 107, TC-O-9311], the EC50 turned out to be 3550 nM.
Same read-out and setting: the figure for `Cn1cc(/C=C/C(=O)c2cccc(F)c2)cc1/C=C/C(=O)NO` [compound 108, MC1568] is 3770 nM; for `COc1ccc2c3c([nH]c2c1)[C@H](CC(C)C)N1C(=O)[C@H](CCC(=O)OC(C)(C)C)NC(=O)[C@@H]1C3` [compound 109, Ko 143] it is 3940 nM.
The same measure, in the same setting: the figure for `CCC[C@H](N[C@H]1CCc2cc(F)cc(F)c2C1)C(=O)Nc1cn(C(C)(C)CNCC(C)(C)C)cn1` [compound 110, Nirogacestat] is 5560 nM.

The assay is the same for the next values; noted with them: RAG01 cell line; 72 hours incubation; CellTiter-Glo; percentage effect normalized to vehicle control; 10-point CRC from 10 μM; read-out: EC50.
On to `CCCCCCCCCCC(O)C1C=CC2C(=O)N(c3ccccc3)C(=O)C2N1Nc1ccc([N+](=O)[O-])cc1` (stereo not shown) [compound 89, A12B4C3], for which the EC50 is 2670 nM.
On the same count and under the same terms, the figure for butylated hydroxyanisole [compound 11] is 1180 nM.
The same measure, in the same setting: the figure for licochalcone [compound 21] is 1070 nM; for piperacetazine [compound 45] it is 1580 nM.

The test system of the next assay is GM09503 (derived from a healthy donor). The assay is described as follows: CellTiter-Glo assay in GM09503 control cell line. Format: cell-based, human. The conditions noted are these: 1 μM control, 72 hours. As to the method:
(§2) Compounds described herein were tested in three cell lines, RAG01 (derived from fibroblasts of a patient diagnosed with SSMD) fibroblasts, RAG02 (derived from fibroblasts of the patient's parent), and GM09503 (from supplier Corriell) (derived from a healthy donor) to each generate 10-point concentration response curves (CRC). The three cell lines were each thawed seven (7) days prior to seeding. The RAG01 cells were thawed in a medium supplemented with a-tocopherol. Cells were passaged four (4) days prior to the seeding. The α-tocopherol was removed from the RAG01 cells. Cells were then seeded at 900 cells per well in 384-well plates. Two replicates were prepared for two independent (replicate) experiments. All plates were then incubated with compounds described herein for 72 hours, prior to CellTiter-Glo assay. The compounds were tested in 10-point concentration (CRCs) from 10 μM using 3.16×(half Log) dilutions. The assay was run using the CellTiter-Glo (Promega) following manufacturer's guidelines and luminescent spectrophotometric reading on PHERAstar FSX (BMG Labtech). […]
as §1
For `CCOC(=O)c1ccc(NC2CCCCC2)c(N)c1` [Ferrostain-1, Ferrostatin-1], the “effect of control compound on GM09503 cells” value was “No effect”.

The next assay concerns RAG02 (derived from fibroblasts of the patient's parent). The assay is described as follows: CellTiter-Glo assay in RAG02 control cell line. Format: cell-based, human. The conditions noted are these: 1 μM control, 72 hours. As for the experimental part: as §2, §1
As to `CCOC(=O)c1ccc(NC2CCCCC2)c(N)c1` [Ferrostain-1, Ferrostatin-1], the “effect of control compound on RAG02 cells” value is on record as “No effect”.
